Earlier results as cited in patent US20200171007A1, “Methods of Treating Hepatorenal Syndrome and Hepatic Encephalopathy with Thromboxane-A2 Receptor Antagonists” (Cumberland Pharmaceuticals Inc., priority 2010, published 2020).
Where a SMILES comes first, the peptide text is derived from it. Bridges are numbered along the chain shown (N, C = ends). [ ]: non-standard residue; d: D form.

Columns and labels:
[1] = test system: patients with cirrhosis, ascites, and hepatorenal syndrome; details: case series
[2] = test system: patients with hepatorenal syndrome; details: intravenous, twelve patients
patients with cirrhosis = patients with cirrhosis / hepatorenal syndrome
[3] = test system: patients with type 1 hepatorenal syndrome; details: nonpressor doses, with albumin
[4] = test system: patients with hepatorenal syndrome; details: five studies
[5] = test system: patients with hepatorenal syndrome; details: ornipressin and albumin
[6] = test system: patients with type 1 hepatorenal syndrome; details: type 1 hepatorenal syndrome (octapressin); short-term use (ornipressin)
[7] = test system: patients with hepatorenal syndrome
[8] = test system: patients with type 1 hepatorenal syndrome
[9] = includes 2 patients who received liver transplantation

In the case of CC(C)C[C@@H]1NC(=O)[C@@H](C(C)C)NC(=O)[C@@H]2CCCN2C(=O)[C@@H](CC(=O)O)NC(=O)[C@@H](Cc2c[nH]c3ccccc23)NC1=O [BQ123] (cyclo(L[dW][dD]P[dV])), the “patients with improvement in the glomerular filtration rate” value [1] is given as 3 patients.
For CC(=O)N[C@@H](CS)C(=O)O [NAC, N-acetylcysteine], the adverse effects [2] is given as “without any adverse effects”, the “survival rate at 1 month” value [2, 9] is given as 67% and the “survival rate at 3 months” value [2, 9] is given as 58%.
In the case of CNCC(=O)N[C@@H](CCCN=C(N)N)C(=O)N[C@H](C(=O)N[C@@H](Cc1ccc(O)cc1)C(=O)N[C@H](C(=O)N[C@@H](Cc1cnc[nH]1)C(=O)N1CCC[C@H]1C(=O)N[C@@H](C)C(=O)O)C(C)C)C(C)C [Saralasin], the “effect on blood pressure and renal function” value (patients with cirrhosis) is given as “worsening hypotension and deterioration in renal function”.
For NCCc1ccc(O)c(O)c1 [dopamine], the “improvement in renal function” value [3] is given as “none of the patients treated with dopamine showed any improvement in renal function” and the “changes in renal plasma flow, glomerular filtration rate, or urine output” value [4] is given as “none have reported significant changes”.
In the case of NCCC[C@H](NC(=O)[C@@H]1CCCN1C(=O)[C@@H]1CSSC[C@H](N)C(=O)N[C@@H](Cc2ccc(O)cc2)C(=O)N[C@@H](Cc2ccccc2)C(=O)N[C@@H](CCC(N)=O)C(=O)N[C@@H](CC(N)=O)C(=O)N1)C(=O)NCC(N)=O [ornipressin], the “patients in whom treatment had to be discontinued because of complications (ischemic colitis, tongue ischemia, glossitis)” value ([5]; 8 patients, after fewer than 9 days) is given as 4 patients, the “improvement in renal plasma flow and glomerular filtration rate” value ([5]; remaining 4 patients treated for 15 days) is given as “significant” and the “Renal plasma flow and glomerular filtration rate” value [6] is given as “significant increase”.
In the case of Cc1ccc(N(CC2=NCCN2)c2cccc(O)c2)cc1 [phentolamine], the “effect on blood pressure and renal function” value (patients with cirrhosis) is listed as “Poor results”.
In the case of NCCCC[C@H](NC(=O)[C@@H]1CCCN1C(=O)[C@@H]1CSSC[C@H](NC(=O)CNC(=O)CNC(=O)CN)C(=O)N[C@@H](Cc2ccc(O)cc2)C(=O)N[C@@H](Cc2ccccc2)C(=O)N[C@@H](CCC(N)=O)C(=O)N[C@@H](CC(N)=O)C(=O)N1)C(=O)NCC(N)=O [terlipressin] (H-GGGCYFQNCPKG-NH2; disulfide 4-9), the adverse ischemic effects ([7]; human, in vivo) is listed as “No adverse ischemic effects were reported”, the “Reversal of hepatorenal syndrome” value ([7]; terlipressin and albumin for 5-15 days, 9 patients treated) is listed as 7 of 9 and the “recurrent hepatorenal syndrome after treatment discontinuation” value ([8]; in conjunction with albumin) is listed as under 15%. For the same compound, the “improvement in glomerular filtration rate and reduction in serum creatinine levels to below 1.5 mg/dL, share of patients” value ([8]; in conjunction with albumin, type 1 hepatorenal syndrome) was 60-75% and the Ischemic complications ([8]; in vivo) was under 5%.
